Results published in patent publication US7550158B2, “Controlled release by extrusion of solid amorphous dispersions of drugs” (Bend Research, Inc., priority 1999, dated 2009).
In brackets after ≈: the same amount, converted by molar mass.

Experiments:
Assay type in all cases: physicochemical
[1] = Dissolution in MFD solution (Example 6); settings: 50 ml MFD solution, Drug 1
From the text: 1. The data for the tri-layer tablet is the average of the values for the two tablets tested.

[2] = Water solubility of the drug
[3] = Dissolution in phosphate buffered saline (PBS) solution (Example 3); settings: 35 ml PBS solution, Drug 2
Procedure: For a comparative dissolution study, Control E, consisting of 35 mg of crystalline Drug 2 was prepared. The dissolution of drug was studied by placing two of the trilayer tablets and Control E each in 35 ml of a phosphate buffered saline (PBS) solution composed of 6 mm KH2PO4, 5 mM NaOH, 60 mM KCl and 30 mM NaCl. The data for the trilayer tablet is the average of the values for the two tablets tested.

[4] = Dissolution in phosphate-buffered solution pH 7.2 simulating intestinal environment (Example 7); settings: 50 ml phosphate-buffered solution pH 7.2, Drug 2
Procedure: For a comparative dissolution study, Control G, consisting of 100 mg of crystalline Drug 2 was prepared. The dissolution of drug was studied by placing one each of the bi-layer tablet and Control G preparation containing an equal amount of Drug 2 in 50 ml of the phosphate-buffered solution of Example 3 (pH 7.2, osmotic pressure 5.3 atm) to simulate an intestinal environment of use.

[5] = Dissolution in MFD solution (Example 8, sertraline); settings: 40 ml MFD solution
Procedure: For a comparative dissolution study, Control H, consisting of 111.4 mg of the crystalline drug, was used. The dissolution of drug was studied by placing the bilayer tablet and Control H each in 40 ml of MFD solution.

CON(C)C(=O)C(O)[C@H](Cc1ccccc1)NC(=O)c1cc2cc(Cl)ccc2[nH]1 (stereo in doubt) [Control F, [R-(R*,S*)]-5-chloro-N-[2-hydroxy-3-[methoxymethylamino)-3-1-(phenylmethyl)propyl]propyl]-1H-indole-2-carboxamide]
MDC (maximum drug concentration) [1]: 16 µg/mL
[Drug] drug concentration ([1]; time 0 hr): 0 µg/mL
[Drug] drug concentration ([1]; time 2 hr): 13 µg/mL
[Drug] drug concentration ([1]; time 4 hr): 16 µg/mL
[Drug] drug concentration ([1]; time 8 hr): 13 µg/mL
[Drug] drug concentration ([1]; time 12 hr): 15 µg/mL
[Drug] drug concentration ([1]; time 20 hr): 12 µg/mL
[Drug] drug concentration ([1]; time 24 hr): 11 µg/mL

CON(C)C(=O)C(O)[C@H](Cc1ccccc1)NC(=O)c1cc2cc(Cl)ccc2[nH]1 (stereo in doubt) [Drug 1, [R-(R*,S*)]-5-chloro-N-[2-hydroxy-3-[methoxymethylamino)-3-1-(phenylmethyl)propyl]propyl]-1H-indole-2-carboxamide]
water solubility [2]: 1 µg/mL (≈ 2.4 µM)

O=C(N[C@@H](Cc1ccccc1)[C@@H](O)C(=O)N1C[C@@H](O)[C@@H](O)C1)c1cc2cc(Cl)ccc2[nH]1 [Control E]
MDC (maximum drug concentration) [3]: 171 µg/mL
[Drug] drug concentration ([3]; time 0.3 hrs): 99 µg/mL
[Drug] drug concentration ([3]; time 1.5 hrs): 148 µg/mL
[Drug] drug concentration ([3]; time 2.0 hrs): 165 µg/mL
[Drug] drug concentration ([3]; time 3.0 hrs): 137 µg/mL
[Drug] drug concentration ([3]; time 4.0 hrs): 142 µg/mL
[Drug] drug concentration ([3]; time 12.0 hrs): 157 µg/mL
[Drug] drug concentration ([3]; time 20.0 hrs): 171 µg/mL

O=C(N[C@@H](Cc1ccccc1)[C@@H](O)C(=O)N1C[C@@H](O)[C@@H](O)C1)c1cc2cc(Cl)ccc2[nH]1 [Control G]
MDC (maximum drug concentration) [4]: 77 µg/mL
[Drug] drug concentration ([4]; time 0 hr): 0 µg/mL
[Drug] drug concentration ([4]; time 1 hr): 59 µg/mL
[Drug] drug concentration ([4]; time 2 hr): 72 µg/mL
[Drug] drug concentration ([4]; time 4 hr): 72 µg/mL
[Drug] drug concentration ([4]; time 8 hr): 77 µg/mL
[Drug] drug concentration ([4]; time 12 hr): 71 µg/mL
[Drug] drug concentration ([4]; time 18 hr): 71 µg/mL
[Drug] drug concentration ([4]; time 24 hr): 75 µg/mL

CN[C@H]1CC[C@@H](c2ccc(Cl)c(Cl)c2)c2ccccc21 [Control H, sertraline]
MDC (maximum drug concentration) [5]: 401 µg/mL
AUC ([5]; time 0 hr): 0 µg·min/mL
[Drug] drug concentration ([5]; time 0 hr): 0 µg/mL
[Drug] drug concentration ([5]; time 0.2 hr): 278 µg/mL
[Drug] drug concentration ([5]; time 0.3 hr): 401 µg/mL
[Drug] drug concentration ([5]; time 0.7 hr): 341 µg/mL
[Drug] drug concentration ([5]; time 1.5 hr): 217 µg/mL
[Drug] drug concentration ([5]; time 2 hr): 188 µg/mL
[Drug] drug concentration ([5]; time 3 hr): 168 µg/mL
[Drug] drug concentration ([5]; time 4 hr): 152 µg/mL
[Drug] drug concentration ([5]; time 6 hr): 160 µg/mL
[Drug] drug concentration ([5]; time 10 hr): 137 µg/mL
[Drug] drug concentration ([5]; time 14 hr): 135 µg/mL
[Drug] drug concentration ([5]; time 24 hr): 191 µg/mL
